From the supplement of paper PMC10627819

What was measured:
Conditions in all cases: main component drawn
B. subtilis 168 [1] = assay: fitness (endpoint OD595 vs no drug) (fraction); higher = more growth
Method in brief: (§1)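 Bacterial growth was followed in 384-well plates seeded at OD595 0.01, with 30 µl per well, or 55 µl for S. pneumoniae, in TSB, LB Lennox or CY at 37 °C. OD595 was read every 30 min for 14 h, and each reading had the first reading subtracted as background. Fitness is the background-corrected optical density at entry into stationary phase divided by the robust mean of the no-drug control wells. This ratio is capped at 1.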

S. aureus Newman [2] = assay: as above
Method in brief: as §1

S. pneumoniae D39V [3] = assay: as above
Method in brief: as §1

B. subtilis 168 [4] = assay: Bliss interaction score (quartile over a dose matrix) (fitness difference); higher = more antagonism (negative = synergy)
Method in brief: (§2)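 Each plate was normalised to the robust mean of its own no-drug wells, using OD595 at entry into stationary phase, with values capped at 1. This normalised growth is the fitness value. The Bliss score is the difference between observed and product-expected fitness, with single-drug fitness inferred from the combination data and quartiles taken over technical, biological and donor/recipient replicates.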

S. aureus DSM 20231 [5] = assay: as above
Method in brief: as §2

S. aureus Newman [6] = assay: as above
Method in brief: as §2

S. pneumoniae D39V [7] = assay: as above
Method in brief: as §2

S. aureus DSM 20231 [8] = assay: fitness (endpoint OD595 vs no drug) (fraction); higher = more growth
Method in brief: as §1
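For Bliss interaction score (quartile over a dose matrix) in this document: first quartile when negative (synergy) and third quartile when positive (antagonism).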

CCC[C@@H]1C[C@@H](C(=O)N[C@@H]([C@H]2O[C@H](SC)[C@H](O)[C@@H](O)[C@H]2O)[C@H](C)Cl)N(C)C1 [Clindamycin] + CC(C1CCC(C(O1)OC2C(CC(C(C2O)OC3C(C(C(CO3)(C)O)NC)O)N)N)N)NC [Gentamicin]
fitness, one replicate
Conditions	first compound 0.0039 µg/mL	first compound 0.0078 µg/mL	first compound 0.0156 µg/mL	first compound 0.0312 µg/mL	first compound 0.0625 µg/mL	first compound 0.125 µg/mL
B. subtilis 168 [1], partner 0.0625 µg/mL	0.962	0.911	0.828	–	–	–
B. subtilis 168 [1], partner 0.125 µg/mL	0.995	0.938	0.839	–	–	–
B. subtilis 168 [1], partner 0.25 µg/mL	0.94	0.867	0.791	–	–	–
S. aureus Newman [2], partner 0.375 µg/mL	–	–	–	0.709	0.55	0.138
S. aureus Newman [2], partner 0.75 µg/mL	–	–	–	0.705	0.542	0.177
S. aureus Newman [2], partner 1.5 µg/mL	–	–	–	0.576	0.254	0.119

Conditions	fitness
B. subtilis 168 [1], first compound 0.0625 µg/mL, partner 0.0625 µg/mL	0.52
B. subtilis 168 [1], first compound 0.125 µg/mL, partner 0.0625 µg/mL	0.397
B. subtilis 168 [1], first compound 0.125 µg/mL, partner 0.25 µg/mL	0.0596
B. subtilis 168 [1], first compound 0.25 µg/mL, partner 0.25 µg/mL	0.0604
S. aureus Newman [2], first compound 0.0312 µg/mL, partner 0.5 µg/mL	0.839
S. aureus Newman [2], first compound 0.0312 µg/mL, partner 2 µg/mL	0.988
S. pneumoniae D39V [3], first compound 0.0125 µg/mL, partner 2 µg/mL	0.781
S. pneumoniae D39V [3], first compound 0.0125 µg/mL, partner 4 µg/mL	0.812
S. pneumoniae D39V [3], first compound 0.0125 µg/mL, partner 8 µg/mL	0.768
S. pneumoniae D39V [3], first compound 0.015 µg/mL, partner 2 µg/mL	0.732
S. pneumoniae D39V [3], first compound 0.015 µg/mL, partner 4 µg/mL	0.698
S. pneumoniae D39V [3], first compound 0.015 µg/mL, partner 8 µg/mL	0.63
S. pneumoniae D39V [3], first compound 0.025 µg/mL, partner 2 µg/mL	0.528
S. pneumoniae D39V [3], first compound 0.025 µg/mL, partner 4 µg/mL	0.513
S. pneumoniae D39V [3], first compound 0.025 µg/mL, partner 8 µg/mL	0.454
S. pneumoniae D39V [3], first compound 0.03 µg/mL, partner 2 µg/mL	0.454
S. pneumoniae D39V [3], first compound 0.03 µg/mL, partner 4 µg/mL	0.425
S. pneumoniae D39V [3], first compound 0.03 µg/mL, partner 8 µg/mL	0.405
S. pneumoniae D39V [3], first compound 0.05 µg/mL, partner 2 µg/mL	0.239
S. pneumoniae D39V [3], first compound 0.05 µg/mL, partner 4 µg/mL	0.254
S. pneumoniae D39V [3], first compound 0.05 µg/mL, partner 8 µg/mL	0.224
S. pneumoniae D39V [3], first compound 0.06 µg/mL, partner 2 µg/mL	0.299
S. pneumoniae D39V [3], first compound 0.06 µg/mL, partner 4 µg/mL	0.249
S. pneumoniae D39V [3], first compound 0.06 µg/mL, partner 8 µg/mL	0.244

Conditions	Bliss interaction score
B. subtilis 168 [4]	0.192
S. aureus DSM 20231 [5]	0.0691
S. aureus Newman [6]	0.148
S. pneumoniae D39V [7]	-0.0694

CCCCCCCCCC(=O)N[C@H]1[C@H](Oc2c3cc4cc2Oc2ccc(cc2Cl)[C@@H](O[C@@H]2O[C@H](CO)[C@@H](O)[C@H](O)[C@H]2NC(C)=O)[C@@H]2NC(=O)[C@H](NC(=O)[C@@H]4NC(=O)[C@H]4NC(=O)[C@@H](Cc5ccc(c(Cl)c5)O3)NC(=O)[C@H](N)c3ccc(O)c(c3)Oc3cc(O)cc4c3)c3ccc(O)c(c3)-c3c(O[C@H]4O[C@H](CO)[C@@H](O)[C@H](O)[C@@H]4O)cc(O)cc3[C@@H](C(=O)O)NC2=O)O[C@H](CO)[C@@H](O)[C@@H]1O [Teicoplanin] + COc1cc(Cc2cnc(N)nc2N)cc(OC)c1OC [Trimethoprim]
fitness, S. aureus DSM 20231 [8]
Conditions	partner 0.125 µg/mL	partner 0.25 µg/mL	partner 0.5 µg/mL	partner 1 µg/mL
first compound 0.1562 µg/mL	0.733	0.591	0.0778	0.0229
first compound 0.3125 µg/mL	0.798	0.61	0.0585	0.0126
first compound 0.625 µg/mL	0.708	–	0.0794	0.0061

Conditions	Bliss interaction score
B. subtilis 168 [4]	-0.0836
S. aureus DSM 20231 [5]	-0.167
S. aureus Newman [6]	-0.249
S. pneumoniae D39V [7]	-0.0668

O=C(O[C@@H]1Cc2c(O)cc(O)cc2O[C@@H]1c1cc(O)c(O)c(O)c1)c1cc(O)c(O)c(O)c1 [EGCG] + CC(C1CCC(C(O1)OC2C(CC(C(C2O)OC3C(C(C(CO3)(C)O)NC)O)N)N)N)NC [Gentamicin]
fitness
Conditions	first compound 6.25 µg/mL	first compound 12.5 µg/mL	first compound 25 µg/mL	first compound 50 µg/mL
B. subtilis 168 [1], partner 0.0625 µg/mL	0.944	–	–	–
B. subtilis 168 [1], partner 0.125 µg/mL	0.814	–	–	–
B. subtilis 168 [1], partner 0.25 µg/mL	–	–	0.142	–
S. aureus Newman [2], partner 0.5 µg/mL	–	0.738	0.69	0.584
S. aureus Newman [2], partner 1 µg/mL	–	0.795	0.754	0.704
S. aureus Newman [2], partner 2 µg/mL	–	0.797	0.766	0.709
S. pneumoniae D39V [3], partner 2 µg/mL	–	0.922	0.947	0.913
S. pneumoniae D39V [3], partner 4 µg/mL	–	0.947	≥ 1	0.989
S. pneumoniae D39V [3], partner 8 µg/mL	–	0.936	0.945	0.942

fitness, S. aureus Newman [2], one replicate
Conditions	first compound 12.5 µg/mL	first compound 25 µg/mL	first compound 50 µg/mL
partner 0.375 µg/mL	0.802	0.805	0.993
partner 0.75 µg/mL	0.773	0.762	0.62
partner 1.5 µg/mL	0.251	0.0762	0

Conditions	Bliss interaction score
B. subtilis 168 [4]	0.329
S. aureus DSM 20231 [5]	0.0682
S. aureus Newman [6]	-0.123
S. pneumoniae D39V [7]	0.09
